According to patent US20050004044A1, “Use of orsaponin [3beta, 16beta, 17 alpha-trihydroxycholost-5-en-22-one 16-0-(2-0-4-methoxybenzoyl-beta-D-xylopyranosyl)-(1->3)-(2-0-acetyl-alpha-L-arabinopyranoside)] or OSW-1 and its derivatives for cancer therapeutics” (priority 2003, published 2005):

Key:
ML-1 leukemia cells = experiment: MTT cell growth inhibition, ML-1; type: cell-based, human; conditions: ML-1, 72 h
Description: (§1) 1. MTT Assays. For these assays either cancer cell lines were used. Alternatively, mononuclear cells from peripheral blood samples of CLL patients or normal donors were separated by Ficoll Hipaque fractionation and resuspended in DMEM complete medium. Malignant cells from various human cell lines (usually at 5×10^4 cells/ml) or mononuclear cells from peripheral blood of leukemia patients and healthy donors (1×10^6 cells/ml) were incubated in either αMEM or RPMI 1640 with or without various concentrations of OSW-1 in the range of 0-10 nM. Each experimental condition was done in triplicate. After the indicated number of days (usually 3 days or 72 hours) of exposure to OSW-1, cell survival was assessed by the addition of the MTT dye to the wells. The MTT dye changes its color depending on the presence of live cells in the well. Survival of cells under orsaponin treatment was evaluated as a percentage of control cell growth. Alternatively, one can also use the dye trypan-blue which penetrates dead cells thereby allowing one to count live cells under the microscope and estimating percentage survival.
(§2) Anticancer activities of Orsaponin and 17-deoxyorsaponin were examined in human leukemia cells (ML-1) and human lymphoma cells (Raji). Cells were incubated with various concentrations of Orsaponin and 17-deoxyorsaponin for 72 h, and cell growth inhibition was measured by MTT assay.
The effect of 17-deoxyorsaponin in human ovarian cancer cells was determined. SKOV3 ovarian cancer cells were incubated with various concentrations of 17-deoxyorsaponin for 72 h. Cell growth inhibition was measured by MTT assay (FIG. 17). […] The effect of 17-deoxyorsaponin in human acute myeloid leukemia cells was also examined. ML-1 leukemia cells were incubated with various concentrations of 17-deoxyorsaponin for 72 h and cell growth inhibition was measured using the MTT assay (FIG. 18).

[1] = system: malignant glioma U87-MG cells; experiment: MTT cell growth inhibition, U87-MG glioma; type: cell-based, human; conditions: U87-MG vs normal human astrocytes
Description: as §1
To test the therapeutic selectivity of Orsaponin and 17-deoxyorsaponin, their effect on human brain tumor cells (U87 malignant glioma) and normal human astrocytes were compared. The normal human astrocytes were previously immortalized by transfection with hTER to allow a long-term culture in vitro. The antiproliferative effect of Orsaponin in human malignant glioma cells (U87-MG) and normal human astrocytes was examined. Cells were incubated with various concentrations of Orsaponin for 72 h. Cell growth inhibition was measured by MTT assay (FIG. 21).

[2] = system: HCT116 p53+/+ colon cancer cells; experiment: MTT cell growth inhibition, HCT116 p53+/+; type: cell-based; conditions: Homo sapiens, HCT-116, 72 h
Description: as §1
(§3) Anticancer activity of 17-deoxyorsaponin in human colon cancer cells was examined. HCT116 p53+/+ and HCT116 p53−/− human colon cancer cells were incubated with the various concentrations of 17-deoxyorsaponin for 72 h. Cell growth inhibition was measured by MTT assay.

[3] = system: pancreatic cancer (Panco-2) cells; experiment: MTT cell growth inhibition, Panco-2; type: cell-based; conditions: Mus musculus, Panco-2, 72 h
Description: as §1
(§4) The effect of Orsaponin and 17-deoxyorsaponin in pancreatic cancer cells was also assessed. […] Cell growth inhibition was measured by MTT assay.

[4] = system: pancreatic cancer AsPC-1 cells; experiment: MTT cell growth inhibition, AsPC-1; type: cell-based, human; conditions: Homo sapiens, ASPC1, 72 h, AsPC-1, 72 h
Description: FIG. 3. Effect of Orsaponin (OSW-1) on cell growth in human pancreatic cancer cells. Human pancreatic cancer AsPC-1 cells were treated with the indicated concentrations of OSW-1 for 72 h or 96 h. Cell growth inhibition was measured by MTT assay.
FIG. 4. The anticancer activity of Orsaponin (OSW-1) is not affected by NFκB expression in pancreatic cancer cells. Human pancreatic cancer cells AsPC-1 with constitutive activation of NFκB or inactivation of NFκB by dominant negative IκBα (AsPC-1/IκBα-ND) were treated with the indicated concentrations of OSW-1 for 72 h. Cell growth inhibition was measured by MTT assay.
Cells and Cell Lines. Various cancer cell lines were used including the human leukemia cell lines HL-60 and ML-1 cells; human lymphoma cell line Raji; human pancreatic cancer cells AsPC-1; and human ovarian cancer cells SKOV3; human colon cancer cells HCT116; as well as isolated CLL cells from patients; and lymphocytes from normal donors. […]
(§5) 1. […] After the indicated number of days (usually 3 days or 72 hours) of exposure to OSW-1, cell survival was assessed by the addition of the MTT dye to the wells. […] Survival of cells under orsaponin treatment was evaluated as a percentage of control cell growth. […]
as §4

[5] = system: HCT116 p53−/− colon cancer cells; experiment: MTT cell growth inhibition, HCT116 p53−/−; type: cell-based; conditions: Homo sapiens, HCT-116, 72 h
Description: as §1, §3

[6] = system: ovarian cancer SKOV3 cells; experiment: MTT cell growth inhibition, SKOV3; type: cell-based; conditions: Homo sapiens, SK-OV-3, SKOV3, 72 h
Description: FIG. 5. Effect of Orsaponin (OSW-1) on cell growth in human ovarian cancer cells (SKOV3). Human ovarian cancer SKOV3 cells were treated with the indicated concentrations of OSW-1 for 72 h. Cell growth inhibition was measured by the MTT assay. The IC50 value is approximately 0.2 nM under the experimental conditions.
1. MTT Assays. For these assays either cancer cell lines were used. Alternatively, mononuclear cells from peripheral blood samples of CLL patients or normal donors were separated by Ficoll Hipaque fractionation and resuspended in DMEM complete medium. […] After the indicated number of days (usually 3 days or 72 hours) of exposure to OSW-1, cell survival was assessed by the addition of the MTT dye to the wells. […] Survival of cells under orsaponin treatment was evaluated as a percentage of control cell growth. […]
OSW-1 Inhibits Growth of Ovarian Cancer Cells. […] Human ovarian cancer SKOV3 cells were treated with 0-10 nM OSW-1 for 72 h and cell growth inhibition was measured by the MTT assay.
The effect of 17-deoxyorsaponin in human ovarian cancer cells was determined. […] Cell growth inhibition was measured by MTT assay (FIG. 17). […] ML-1 leukemia cells were incubated with various concentrations of 17-deoxyorsaponin for 72 h and cell growth inhibition was measured using the MTT assay (FIG. 18).

primary CLL cells = experiment: cells; type: cell-based; conditions: Homo sapiens, CLL cell, CLL cells, median of 11 patient samples; read-out: IC50 (nM), Median
Description: FIG. 7. Effect of Orsaponin (OSW-1) on cell survival in primary human leukemia cells isolated from patients with chronic lymphocytic leukemia (CLL). Freshly isolated primary CLL cells were incubated with the indicated concentrations of OSW-1 for 72 hours in vitro. Cell viability was measured by MTT assay. […] Data from representative experiments with CLL cells from three different patients are shown. A total of 23 CLL blood samples were tested for sensitivity to OSW-1 in the same fashion.
as §1
Reduction of Cell Viability in CLL-Patient-Derived Cells. […] Freshly isolated primary CLL cells were incubated with the 0-100 nM OSW-1 for 72 hours in vitro and cell viability was measured by the MTT assay.
Cytotoxic activity of 17-deoxyorsaponin was also assessed in a number of patient samples. Primary human leukemia cells isolated from 11 patients with chronic lymphocytic leukemia (CLL) were analyzed for cytotoxic activity of 17-deoxyorsaponin. […]

Raji cells (lymphoma) = experiment: MTT cell growth inhibition, Raji; type: cell-based, human; conditions: Homo sapiens, 72 h
Description: FIG. 2. Effect of Orsaponin (OSW-1) on cell growth in two human cancer cell lines including a leukemia and a lymphoma cell line. HL-60 (leukemia) and Raji cells (lymphoma) in exponentially growing phase were treated with the indicated concentrations of OSW-1 for 72 hours. Cell growth inhibition was measured by MTT assay.
Cells and Cell Lines. Various cancer cell lines were used including the human leukemia cell lines HL-60 and ML-1 cells; human lymphoma cell line Raji; human pancreatic cancer cells AsPC-1; and human ovarian cancer cells SKOV3; human colon cancer cells HCT116; as well as isolated CLL cells from patients; and lymphocytes from normal donors. Cells were grown and maintained as per protocols known in the art using appropriate cell culture media and supplements.
as §5, with “1. MTT Assays. For these assays either cancer cell lines were used.” for “1.”
as §2

## COc1ccc(C(=O)OC2C(OC3C(O)COC(O[C@H]4C[C@H]5[C@@H]6CC=C7C[C@@H](O)CC[C@]7(C)[C@H]6CC[C@]5(C)[C@H]4[C@H](C)C(=O)CCC(C)C)C3OC(C)=O)OCC(O)C2O)cc1 (stereo partly shown) [17-deoxyorsaponin]
ML-1 leukemia cells; Homo sapiens, 72 h
  IC50: < 0.1 nM
ML-1 leukemia cells
  IC50: ~0.2 nM
[1]
  sensitivity of glioma cells compared with normal astrocytes: more sensitive
[2]
  IC50: ~1 nM
[3]
  IC50: 0.1 nM
[4]
  IC50: 1 nM
[5]
  IC50: ~1 nM
[6]
  IC50: ~0.1 nM
Primary CLL cells
  IC50: 0.37 nM
Raji cells (lymphoma)
  IC50: < 0.1 nM
